In patent US4173636A, “Decahydroquinolines, pharmaceutical compositions and methods of use” (Labaz, priority 1975, dated 1979) one finds ED50 data, which are given here for six compounds.

Where two headings read alike, the source gives them in different places.

Assay [1] relates to contorsions. The assay is described as follows: SIEGMUND phenylbenzoquinone contorsion test. Particulars: Mus musculus. The class given is in vivo, male mice. As to the method: The third test was carried out according to the technique of SIEGMUND and al (Proc. Soc. Exp. Biol. Med. 95, 729, 1957) on batches of 10 male mice.
A typical syndrome was produced in the animals by intraperitoneal injection of 0.25 ml. of a 0.02% aqueous solution of 2-phenyl-1,4-benzoquinone (phenylbenzoquinone).
The syndrome in question is characterized by intermittent contractions of the abdomen, twisting and turning of the trunk and extension of the hind legs. Note was taken of the number of movements occurring over a period of 30 minutes starting 15 minutes after the injection of phenylbenzoquinone.
The compound to be tested was injected 30 minutes before the phenylbenzoquinone in such a way that each batch received a higher dose than the preceding batch, a control batch receiving only the phenylbenzoquinone.
Note was taken of the AD50, i.e. the dose of substance which reduced at least by half the number of contorsions in half of the animals, as compared to the number of contorsions observed in the control group.

Assay [2] concerns contorsions. The assay is described as follows: KOSTER acetic acid contorsion test, intragastric. The class given is in vivo, mice. Particulars: Mus musculus, po. As to the method: The first test was carried out according to the technique of KOSTER (Fed. Proc. 18, 412, 1959) on batches of 20 mice which had been deprived of food for 18 hours.
Each batch of animals with the exception of the controls was given an intragastric dose of the compound to be studied so that each batch received a higher dose than the preceding batch. Thirty minutes after administration, the animals of each batch, as well as the control animals, were given intraperitoneally 0.2 ml. of a 0.25% acetic acid solution per 10 g. of body-weight.
During the 20 minutes following the injection of acetic acid, the number of characteristic contorsions made by the animals was noted. The absence of contorsions corresponds to animals under the influence of analgesia.
Note was taken of the AD50, i.e. the dose of the compound under study which provoked analgesia in half of the animals treated.

In assay [3] the test system is squeak at threshold-voltage (pain). The assay is described as follows: NILSEN electric tail stimulation test, intragastric. The class given is in vivo, mice. To be noted: Mus musculus, po. The method, then:
The second test was carried out according to the technique of NILSEN (Acta Pharmacol. et toxicol. 18, 10, 1961) on batches of 10 mice.
The animals were connected to a source of electric current by means of two electrodes inserted into the tail.
The threshold-voltage was then determined, i.e. the minimum voltage which, in the course of two successive shocks, caused the animals to squeak at least one time out of two. After this, the compound to be studied was administered by intragastric route.
Note was taken of the dose of compound (AD50) which suppressed the squeak in half of the treated animals.

A further assay concerns pain-threshold voltage. Kind of assay: CHARLIER electric stimulation pain-threshold test, intragastric. To be noted: Rattus norvegicus, po. The class given is in vivo, rats. As to the method:
The fourth test was carried out according to the technique of CHARLIER and al (Arch. int. Pharmacodyn. 134, 306, 1961) on batches of 10 rats.
The animals were connected to a source of electric current by means of two electrodes of which one was attached to the tail and the other maintained in the rectum.
The pain-threshold voltage was then determined for each rat by passing a current of 2 volts and increasing the current by one volt at a time until the animal gave a squeak. This control test was repeated three times at intervals of 15 minutes. The compound under study was then administered by intragastric route and, starting from the threshold-voltage already determined note was taken, every 10 minutes for 2 hours, of the voltage which caused the animals to squeak.
The results were noted according to the WINTER and FLATAKER scale (J. Pharmacol. Exp. Therap. 98, 305, 1950) and the AD's 50 obtained are listed in the Table given hereunder: […]

Assay [4] concerns squeak at threshold-voltage (pain). The assay is described as follows: animal or person. The class given is in vivo, mice. To be noted: Mus musculus, sc, read-out: AD50.
For assay [5], the system named is contorsions. Kind of assay: animal or person. To be noted: Mus musculus, sc, read-out: AD50. The class given is in vivo, mice.
Assay [6] relates to reaction time (flick-tail). Kind of assay: animal or person. The class given is in vivo, male rats. Particulars: Rattus norvegicus, sc, read-out: AD50.

On to `CC(=O)Oc1ccccc1C(=O)O` [Acetylsalicyclic acid, Acetylsalicylic acid], for which the ED50 in the assay with contorsions [1] (read-out: AD50) was found to be 50 mg/kg; with contorsions [2] (read-out: AD50), 150 mg/kg; in assay [3] (read-out: AD50), 1100 mg/kg; in the assay with pain-threshold voltage (2 h, read-out: AD50), 1300 mg/kg.
As for `Cc1cc(=O)n(-c2ccccc2)n1C` [Antipyrine], the ED50 amounted to 100 mg/kg with contorsions [1] (injected 30 minutes before phenylbenzoquinone, male mice, contorsions reduced at least by half in half of the animals, read-out: AD50 (the source's name)); 120 mg/kg in the assay on contorsions [2] (intragastric, mice, 30 min before 0.25% acetic acid i.p., analgesia in half of the animals, read-out: AD50 (the source's name)); 400 mg/kg in assay [3] (intragastric, mice, suppressed the squeak in half of the treated animals, read-out: AD50 (the source's name)); 500 mg/kg in the assay with pain-threshold voltage (intragastric, rats, WINTER and FLATAKER scale, 2 hours, read-out: AD50 (the source's name)).
Regarding `O=C(OCC(O)CO)c1ccccc1Nc1ccnc2cc(Cl)ccc12` (stereo not shown) [Glafenine], the ED50 was determined as 325 mg/kg in the assay on contorsions [1] (read-out: AD50) and 110 mg/kg with contorsions [2] (read-out: AD50).
For the compound `CC(C)=CCN1CCC2(C)c3cc(O)ccc3CC1C2C` (stereo not shown) [Pentazocine], the ED50 with contorsions [2] (read-out: AD50) was 45 mg/kg; in assay [4] it was 12 mg/kg; with contorsions [5] it was 5 mg/kg; in assay [6] it was 3 mg/kg.
Turning to `CCOC(=O)C1(c2ccccc2)CCN(C)CC1` [Pethidine], the ED50 in assay [4] came to 7 mg/kg; in the assay on pain-threshold voltage (2 h, read-out: AD50), 50 mg/kg; in the assay with contorsions [5], 7 mg/kg; in assay [6], 5.5 mg/kg.
On to `CCOc1ccc(NC(C)=O)cc1` [Phenacetine], for which the ED50 in the assay on contorsions [1] (read-out: AD50) amounted to 80 mg/kg; in the assay on contorsions [2] (read-out: AD50) it was 160 mg/kg; in assay [3] (read-out: AD50), 450 mg/kg; in the assay on pain-threshold voltage (2 h, read-out: AD50) it was 750 mg/kg.
